SMILES strings stand for the structures.

Experimental findings from patent publication US20090054328A1, “Reagents and Methods for Modulating Gene Expression Related to Hypertension” (The Board of Trustees of the University of Illinois, priority 2005, published 2009) are described below.

In one test the test system is SHR. Briefly: Systolic blood pressure (tail-cuff) in SHR, drug given continuously for 3 weeks by osmotic pump. It is filed as in vivo, rat. The settings on record: continuous 3 weeks. How it is done:
The importance of regulating MLCK expression by Ras signaling in vivo was further investigated by treating SHR with U0126 continuously for 3 weeks. U0126 is a specific inhibitor MEK (Favata et al., 1998J. Biol. Chem. 273: 18623-18632), an upstream regulator of ERK in the Ras signaling pathway (Chien & Hoshijima, 2002, Id.). […] In these experiments, Systolic blood pressure (SBP) was measured using tail-cuff sphygmomanometry (IITC Incorporated/Life Sciences Institute, Woodland Hills Calif.). Drugs were delivered via an osmotic pump (DURECT Corporation, Cupertino, Calif.) implanted subcutaneously in the shoulder. The pumps (having a 2 mL capacity at a delivery rate of 2.45 μL/hour) were filled with 13.5 mM U0126 (BIOMOL Research Laboratories, Plymouth Meeting, Pa.) dissolved in 50% DMSO or vehicle alone. Three weeks later, rats were sacrificed and aortas were removed. Some vessels were processed for histology, while other tissue was immediately placed in ice-cold acetone containing 10% trichloroacetic acid (TCA) and 10 mM dithiothreitol (DTT). Endothelial cells were removed by gently rubbing the inside of the vessels with a cell lifter and connective tissue was removed by dissection. The cleaned vessels were then frozen on dry ice and stored at −80° C. for biochemical analysis.
Another experiment was conducted to determine if inhibiting Ras signaling could decrease blood pressure in SHR.

For the next test, the system named is WKY rats. As to conditions: age-matched WKY rats, U0126 3 weeks; returned to baseline within 2 weeks of treatment. The source says: The importance of regulating MLCK expression by Ras signaling in vivo was further investigated by treating SHR with U0126 continuously for 3 weeks. U0126 is a specific inhibitor MEK (Favata et al., 1998J. Biol. Chem. 273: 18623-18632), an upstream regulator of ERK in the Ras signaling pathway (Chien & Hoshijima, 2002, Id.). Rats that were 8 weeks old at the start of treatment were studied because blood pressure increases and blood vessels become thicker between 8 and 12 weeks of age (Yamori, 1984, Id). In these experiments, Systolic blood pressure (SBP) was measured using tail-cuff sphygmomanometry (IITC Incorporated/Life Sciences Institute, Woodland Hills Calif.). Drugs were delivered via an osmotic pump (DURECT Corporation, Cupertino, Calif.) implanted subcutaneously in the shoulder. The pumps (having a 2 mL capacity at a delivery rate of 2.45 μL/hour) were filled with 13.5 mM U0126 (BIOMOL Research Laboratories, Plymouth Meeting, Pa.) dissolved in 50% DMSO or vehicle alone. Three weeks later, rats were sacrificed and aortas were removed. Some vessels were processed for histology, while other tissue was immediately placed in ice-cold acetone containing 10% trichloroacetic acid (TCA) and 10 mM dithiothreitol (DTT). Endothelial cells were removed by gently rubbing the inside of the vessels with a cell lifter and connective tissue was removed by dissection. […]

For test [1], the system named is ERK-P, MLCK expression and MLC-P. How it is done: Cells or pieces of blood vessels were extracted in buffer containing 9 M urea, 10 mM DTT and 20 mM Tris, pH 8.0. Protein concentrations were measured using the Bradford Protein Assay (BioRad, Richmond, Calif.) and equivalent amounts of protein were subjected to SDS-PAGE or urea-glycerol PAGE, Proteins separated by SDS-PAGE were transferred to nitrocellulose and probed with an antibody to MLCK (de Lanerolle et al., 1981, Proc. Natl. Acad. Sci. 78: 4738-4742), the broad specificity C4 antibody to actin (Lessard, 1988, Cell. Motil. Cytoskeleton. 10: 349-362), antibodies to Rho A or phosphorylated MPasel (Santa Cruz Biotechnology, Santa Cruz, Calif.) or an antibody to phosphorylated ERK½ (Cell Signaling Technology, Beverly, Mass.). Urea-glycerol PAGE was used to separate the unphosphorylated and phosphorylated forms of MLC20, which was then transferred to nitrocellulose and probed with an antibody to MLC20, wherein the stoichiometry of phosphorylation (mol PO4/mol MLC20) was calculated as previously described (Obara et al., 1989, Pflugers. Arch. 414: 134-138). Ail immunoreactive bands were visualized using enhanced chemiluminescence (Amersham Pharmacia Biotech, Piscataway, N.J.) and quantified densitometrically.
(§1) The importance of regulating MLCK expression by Ras signaling in vivo was further investigated by treating SHR with U0126 continuously for 3 weeks. U0126 is a specific inhibitor MEK (Favata et al., 1998J. Biol. Chem. 273: 18623-18632), an upstream regulator of ERK in the Ras signaling pathway (Chien & Hoshijima, 2002, Id.). Rats that were 8 weeks old at the start of treatment were studied because blood pressure increases and blood vessels become thicker between 8 and 12 weeks of age (Yamori, 1984, Id). In these experiments, Systolic blood pressure (SBP) was measured using tail-cuff sphygmomanometry (IITC Incorporated/Life Sciences Institute, Woodland Hills Calif.). Drugs were delivered via an osmotic pump (DURECT Corporation, Cupertino, Calif.) implanted subcutaneously in the shoulder. The pumps (having a 2 mL capacity at a delivery rate of 2.45 μL/hour) were filled with 13.5 mM U0126 (BIOMOL Research Laboratories, Plymouth Meeting, Pa.) dissolved in 50% DMSO or vehicle alone. Three weeks later, rats were sacrificed and aortas were removed. Some vessels were processed for histology, while other tissue was immediately placed in ice-cold acetone containing 10% trichloroacetic acid (TCA) and 10 mM dithiothreitol (DTT). Endothelial cells were removed by gently rubbing the inside of the vessels with a cell lifter and connective tissue was removed by dissection. The cleaned vessels were then frozen on dry ice and stored at −80° C. for biochemical analysis.
ERK-P, MLCK expression and MLC-P were assayed in U0126 SHR as described above.

Test [2] deals with medial smooth muscle layer of aortas and mesenteric arteries.
Text: as §1
Blood vessels were also assessed histologically. […] Cross-sections (5 microns thick) were cut, deparaffinized and stained with Gomort's Trichrome. Nuclei were visualized with Weigert's iron hematoxylin. The thickness of the medial layer was quantified using NIH ImageJ 1.32 software (National Institutes of Health, Bethesda, […].).

For another test, the system named is MLCK expression in VSMC. Nature of the test: Blocking Ras signaling in vitro in VSMC: MLCK expression and MLC-P by Western blot. It is filed as cell-based, rat. How it is done: In view of the results obtained in Example 3 above, the effect of modulating SRF expression or activity on MLCK expression was assayed. To inhibit SRF activity, an adenovirus (AdSRF-S) lacking exons 4 and 5 was used to express a truncated, dominant negative form of SRF in cells (Davis et al., 2002, Id). Control cells were infected with a virus expressing GFP (AdGFP) at the same multiplicity of infection. In these experiments, VSMC were explanted from aortas of 4 to 7 weeks old SHR or WKY rats as previously described (Ross, 1971, J. Cell. Biol. 50: 172-186) and cultured in Dulbeccos's modified Eagles's medium (DMEM) with 10% fetal bovine serum (FBS). VSMC from WKY rats grown in 6-well plates (90-100% confluent) were infected for 2 hours with either an adenovirus that express a short form of SRF (AdSRF-S) (Davis et al., 2002, Id) or a control virus that expresses GFP (AdGFP). The viruses were washed out and the cells were grown as described above for 48 hours. VSMC were harvested and cell lysates were subjected to western blot analyses.
Dominant negative Ras decreased MLCK mRNA expression in VSMC from SHR (FIG. 4C, inset). To investigate downstream events of Ras signaling, VSMC from SHR were treated with antisense oligonucleotides to ERK, a known member of the Ras signaling pathway. […]
On the technique in general: Immunoblotting shows a protein as a band on a membrane.

[3] abbreviates: U0126-treated SHR compared to control.

`N#CC(=C(/N)Sc1ccccc1N)/C(C#N)=C(\N)Sc1ccccc1N` [U0126]: in the test on SHR (SHR 8 weeks old at start, 13.5 mM U0126 in osmotic pump, vehicle 208.9±4.7), the “systolic blood pressure at the end of the 3-week treatment period” value is 150.4±4.1 mmHg. Also, the “systolic blood pressure at the end of the 3-week treatment period” value in the test on SHR (SHR 16 weeks old at start, osmotic pump, vehicle 221.6) came to 181.4±0.89 mmHg. The “SBP in normotensive WKY rats” value in the test with WKY rats is “transient decrease”. Besides, in test [1] (SHR after U0126 treatment), the “RhoA expression in aortas” value is reported as “No significant differences” and the “phosphorylated myosin phosphorylase-1 (MPasel-P) in aortas” value is “No significant differences”. Moreover, in test [1] (setting [3]), the “ERK phosphorylation (ERK-P) in blood vessels” value is reported as “decreased”, the “MLC phosphorylation (MLC-P) in blood vessels” value is on record as “decreased” and the “MLCK expression in blood vessels” value was “decreased”. Further, in test [2] (SHR receiving U0126 compared to controls), the “medial smooth muscle layer in aortas and mesenteric arteries” value is given as “thinner”. Also, the “total medial area of aortas” value in test [2] (SHR, 3 weeks U0126, NIH ImageJ, vehicle 117.8±3.69) amounted to 66.4±2.79 relative units. Also, the “total medial area of mesenteric arteries” value in test [2] (SHR, 3 weeks U0126, mean from two animals, vehicle 26.88) is listed as 16.0. Moreover, in the test on MLCK expression in VSMC, the “MLCK expression in VSMC” value was “decreased”.
